Test results as given in US20100093642A1, “NOVEL POLYPEPTIDES” (priority 2006, published 2010).
In brackets after ≈: the same amount, converted by molar mass. Residues, ends and D or L forms follow the SMILES beside them. No end group written: not given here.

Experiments:
Assay type in all cases: cell-based
[1] = system: Staphylococcus aureus, ATCC 9144; settings: non-clinical isolate; 37° C.; 3×10^6 cells per ml
Protocol: (§1) The antibacterial activities of the different peptides were determined by continuous monitoring of bacterial growth with a Bioscreen C microbiology reader (Labsystems Oy, Helsinki, Finland). The test was performed in 100-well flat-bottomed honeycomb plates, in which 50 μl of test fractions were incubated with 50 μl of a suspension of an actively growing culture of bacteria diluted in Mueller Hinton medium to a starting concentration of 3×10^4 cells per ml. The Gram-negative bacteria, Listonella (Vibrio) anguillarum, serotype O2 (FT 1801, a fish pathogenic strain), Pseudomonas aeruginosa and E. coli (ATCC 25922), and the Gram-positive bacteria, C. glutamicum (ATCC 13032) and S. aureus (ATCC 9144), were chosen as test bacteria. The growth chamber was maintained at either 20 or 37° C. during the incubation period. The absorbance was measured at 2 h intervals for 48 h by a turbidometric method with vertical light photometry and a wide band filter (420-580 nm), which is more insensitive to color change in the sample compared to single wavelength detection. Antibacterial activity was determined when the optical density (OD) of the growth control (bacteria plus water) reached an absorbance of 0.3-0.4. Fractions were regarded as active when the OD was less than 50% of the growth control. Polymyxin B (Sigma, St. Louis, Mo., USA), Lactoferricin B, Cecropin P1 and Hyalophora cecropia Cecropin B were used as reference.
(§2) The antimicrobial molecules were also tested against drug resistant clinical isolates, such as the commonly encountered multi-resistant human pathogen S. aureus (MRSA) K15-64 and the glycopeptide (vancomycin)-resistant Enterococccus faecium (GREF) K9-28. The non-clinical isolates Escherichia coli (ATCC 25922), Pseudomonas aeruginosa (ATCC 27853), Corynebacterium glutamicum (ATCC 13032), and Staphylococcus aureus (ATCC 9144) were also tested for comparison. Serial dilutions of synthetic peptides were made in double distilled water and tested according to the method described above. However, in these experiments the starting concentration of bacteria were 3×10^6 cells per ml and the temperature in the growth chamber was 37° C. Polymyxin B was used as positive control for the Gram-negative bacteria.

[2] = system: Acinetobacter baumannilii, K15-9; settings: clinical isolate; 37° C.; 3×10^6 cells per ml
Protocol: as §1, §2

Bacillus spp K13-61 = settings: clinical isolate; 37° C.; 3×10^6 cells per ml
Protocol: as §1, §2

Escherichia coli, K15-58 = settings: clinical isolate; 37° C.; 3×10^6 cells per ml
Protocol: as §1, §2

[3] = system: Enterococcus faecium (GREF), K9-28; settings: vancomycin-resistant clinical isolate; 37° C.; 3×10^6 cells per ml
Protocol: as §1, §2

[4] = system: Staphylococcus aureus (MRSA), K15-64; settings: multi-resistant clinical isolate; 37° C.; 3×10^6 cells per ml
Protocol: as §1, §2

[5] = system: murine B lymphoma (reticulum cell sarcoma) cell line A20; settings: 4 h
Protocol: The cytotoxic effects of the peptides on different human tumour cells were measured using the MTT colorimetric assay (Mosmann, 1983). MIT (3-(4-5-dimethylthiazol-2-yl)-2,5-diphenyl tetrazolium bromide) is a soluble tetrazolium salt yielding a yellow solution when prepared in media or salt solutions lacking phenol red. Dissolved MIT is converted to an insoluble purple formazan by cleavage of the tetrazolium ring by dehydrogenase enzymes. This water insoluble formazan can be solubilized using isopropanol or other solvents and the dissolved material is measured spectrophotometrically. The absorbance was measured as a function of concentration of converted dye. The conversion of the soluble dye to the insoluble purple formazan is utilized in assays for measurement of cell proliferation. […] We used this assay to measure the degree of cell death caused by the peptides.
CT26 and A20 were maintained in RPMI-1640 medium supplemented with 10% heat inactivated FBS and 1% L-glutamine in a humidified atmosphere of 5% CO2 at 37° C. The human embryonic fibroblast cell line, MRC-5, was cultured as a monolayer in MEM medium, under the same conditions as described for the tumour cell lines. CT26 and MRC-5 cells to be used in the assay were grown to a minimum of 75% confluency, trypsinated and split to single cell suspension, counted and centrifuged at 1500 rpm for 7 min. The cell pellet was resuspended to a concentration of 1-2×10^5 cells/ml in RPMI-1640 medium without FBS and L-glutamine-L-alanine (assay-medium). The A20 cells were grown in suspension and adjusted to a concentration of 6×10^5 cells/ml in assay medium. All cell lines were routinely tested for mycoplasma infection using a PCR-based mycoplasma detection kit (MycoSensor PCR Assay Kit, Stratagene), following the supplier's instructions. All cell lines were mycoplasma free.
The cytotoxicity was measured using the MTT method (Mosmann, 1983), with minor modifications. The adherent cells (CT26 and MRC-5) were applied in 96-well culture plates in a volume of 100 μl assay medium and incubated at 37° C. for 24 hours. The A20 cells were applied to the microtiter plates just prior to testing. The medium was removed and the cells were treated with 100 μl of peptide solution (concentrations ranging from 0 to 400 μg/ml), diluted in serum-free medium, and the plates were incubated at 37° C. for 4 hours. Cells treated with Triton X-100 (1%) were used as positive control (100% killing) whereas cells plus medium only were used as negative control. Following the incubation period, 10 and 20 μl MTT (5 mg/ml, dissolved in PBS) were added to each well in the adherent cells (CT26 and MRC-5) and the A20 cells, respectively. After further incubation for 2 hours, a volume of 70 μl of the supernatant was removed and 100 μl acid alcohol (0.04 M HCl in isopropanol) added to each well in the adherent cell lines. For the cells grown in suspension (A20), a volume of 130 μl of the supernatant was removed and 100 μl acid alcohol was added. The plates were placed on a shaker for 1 hour at room temperature and read spectrophotometrically at 590 nm in a microtiter plate reader (Thermomax Molecular devices, New Jersey, USA). Cell survival (%, averaging at least 2 parallels) and IC50 values were estimated as described above.

For `CC[C@H](C)[C@H](NC(=O)CNC(=O)[C@H](CO)NC(=O)[C@H](CCCCN)NC(=O)[C@@H](NC(=O)[C@H](C)NC(=O)[C@H](Cc1c[nH]cn1)NC(=O)[C@H](CO)NC(=O)[C@@H](NC(=O)[C@H](CCCCN)NC(=O)[C@H](Cc1c[nH]cn1)NC(=O)[C@H](Cc1ccccc1)NC(=O)[C@@H](NC(=O)[C@H](CCCCN)NC(=O)[C@H](CCCCN)NC(=O)[C@H](Cc1ccccc1)NC(=O)C(Cc1c[nH]c2ccc(Br)cc12)NC(=O)CN)[C@@H](C)O)C(C)C)C(C)C)C(=O)N[C@@H](Cc1c[nH]cn1)C(=O)N[C@@H](C)C(=O)NCC(=O)N[C@@H](CCC(N)=O)C(=O)N[C@@H](CCCNC(=N)N)C(=O)NCC(=O)N[C@@H](CS)C(=O)N[C@@H](CO)C(=O)N[C@@H](C)C(=O)N[C@@H](CC(C)C)C(=O)NCC(=O)N[C@@H](Cc1ccccc1)C(=O)O` (some centres unmarked) [P17 HC-Br] (HELM PEPTIDE1{G.[O=C(C(Cc1c[nH]c2ccc(Br)cc12)N[*:1])[*:2]].F.K.K.T.F.H.K.V.S.H.A.V.K.S.G.I.H.A.G.Q.R.G.C.S.A.L.G.F}$$$$V2.0), the “Minimal inhibitory concentration, Staphylococcus aureus, ATCC 9144” value (“Minimal inhibitory concentration … ATCC 9144” below) [1] was 12.5 µM (≈ 41.5 µg/mL), the “Minimal inhibitory concentration, Acinetobacter baumannilii, K15-9” value (“Minimal inhibitory concentration … K15-9” below) [2] was 1.56 µM (≈ 5.18 µg/mL) and the “Minimal inhibitory concentration, Bacillus spp K13-61” value (Bacillus spp K13-61) was 6.25 µM (≈ 20.8 µg/mL). For the same compound, the “Minimal inhibitory concentration, Escherichia coli, K15-58” value (Escherichia coli, K15-58) was 3.12 µM (≈ 10.4 µg/mL), the “Minimal inhibitory concentration, Enterococcus faecium (GREF), K9-28” value (“Minimal inhibitory concentration … K9-28” below) [3] was 0.78 µM (≈ 2.59 µg/mL) and the “Minimal inhibitory concentration, Staphylococcus aureus (MRSA), K15-64” value (“Minimal inhibitory concentration … K15-64” below) [4] was 6.25 µM (≈ 20.8 µg/mL). It also gave an IC50 [5] of 24.1 µM.
In the case of GWFKKTFHKVSHAVKSGIHA [P17 HC (1-20)], the “Minimal inhibitory concentration … ATCC 9144” value [1] is reported as over 50 µM, the “Minimal inhibitory concentration … K15-9” value [2] is reported as 6.25 µM and the “Minimal inhibitory concentration, Bacillus spp K13-61” value (Bacillus spp K13-61) is reported as 50 µM. The “Minimal inhibitory concentration, Escherichia coli, K15-58” value (Escherichia coli, K15-58) was 6.25 µM, the “Minimal inhibitory concentration … K9-28” value [3] was 6.25 µM and the “Minimal inhibitory concentration … K15-64” value [4] was over 50 µM.
With GWFKKTFHKVSHAVKSGIHAGQRGCSALGF [P17 HC] the “Minimal inhibitory concentration … ATCC 9144” value [1] was 12.5 µM, the “Minimal inhibitory concentration … K15-9” value [2] was 3.12 µM and the “Minimal inhibitory concentration, Bacillus spp K13-61” value (Bacillus spp K13-61) was 6.25 µM. For the same compound, the “Minimal inhibitory concentration, Escherichia coli, K15-58” value (Escherichia coli, K15-58) was 1.56 µM, the “Minimal inhibitory concentration … K9-28” value [3] was 0.39 µM and the “Minimal inhibitory concentration … K15-64” value [4] was 6.25 µM. The IC50 [5] was 3.9 µM.
